The source of these data is paper PMC10222323, “Novel Biotinylated Cu(II)-Phenanthroline Complexes: 2D and 3D Cytotoxic Activity and Mechanistic Insight” (Molecules, 2023).

The subject of assay [1] is HCT-15 (colorectal with low sensitivity for cisplatin) cancer cells. The experiment in a line: MTT cytotoxicity test, 72 h, HCT-15. It is filed as cell-based, human. The settings on record: mean ± S.D. On the procedure:
(§1) The in vitro anticancer potential of the newly developed complexes and of the ligands has been tested on six different cancer cell lines including PSN-1 (pancreatic), HCT-15 (colorectal with low sensitivity for cisplatin), 2008 (ovarian), A431 (cervical), MDA-MB-231 (breast), and U1285 (lung) cancer cells. For comparison purposes, cisplatin efficacy was assessed under the same experimental conditions.
(§2) Tested compounds were dissolved in DMSO and added to the cell-growth medium to a final solvent concentration of 0.5%, which is well reported to not have cytotoxic effects on cell viability. Cisplatin (Sigma Chemical Co., St. Louis, MO, USA) was dissolved in a physiologic solution (0.9% sodium chloride).
(§3) Human colon (HCT-15), pancreatic (PSN-1), and breast (MDA-MB-231) carcinoma-cell lines were obtained from the American Type Culture Collection (ATCC, Rockville, MD). Human cervical carcinoma (A431) cells were kindly provided by Prof. F. Zunino (Division of Experimental Oncology B, Istituto Nazionale dei Tumori, Milan). Human ovarian carcinoma (2008) cells and their cisplatin-resistant counterpart (C13*) were kindly provided by Prof. G. Marverti (Dipartimento di Scienze Biomediche, Università di Modena University, Italy). Cell lines were cultured in RPMI-1640 or DMEM medium (Euroclone) added with 10% fetal calf serum (Euroclone, Milan, Italy), antibiotics (50 units per mL penicillin, and 50 μg mL^−1 streptomycin), and 2 mM L-glutamine.
(§4) The growth inhibitory effect toward the tumour cell lines was evaluated by the MTT test as previously described.

Assay [2] has as its system 2008 (ovarian) cancer cells. The experiment in a line: MTT cytotoxicity test, 72 h, 2008. It is filed as cell-based, human. On the procedure:
as §1
(§5) Table 2 reported the IC50 values of the complexes against two types of ovarian cancer cells, one sensitive (2008) and one resistant to cisplatin (C13*). […] The resistance factor (R.F., the ratio among IC50 values obtained in resistant C13*cells and those calculated in the sensitive 2008 ones) calculated for all tested complexes resulted to be ≤2 (R.F. for cisplatin 11.1), strongly confirming the ability of the complexes to bypass cisplatin resistance.
as §2, §3, §4

Assay [3] concerns A431 (cervical) cancer cells. The assay is described as follows: MTT cytotoxicity test, 72 h, A431. The settings on record: mean ± S.D. It is filed as cell-based, human. The protocol:
as §1, §2, §3, §4

Assay [4] has as its system MDA-MB-231 (breast) cancer cells. The experiment in a line: MTT cytotoxicity test, 72 h, MDA-MB-231. The class given is cell-based, human. The settings on record: mean ± S.D. On the procedure: as §1, §2, §3, §4
For assay [5], the system named is U1285 (lung) cancer cells. The experiment in a line: MTT cytotoxicity test, 72 h, U1285. It is filed as cell-based, human. The settings on record: mean ± S.D., read-out: IC50 U-1285. On the procedure:
as §1, §2, §4

Assay [6] concerns C13* ovarian cancer cells (cisplatin-resistant). The assay is described as follows: MTT cytotoxicity test, 72 h, cisplatin-resistant C13*. To be noted: for R.F. (resistance factor): RF = IC50 resistant (C13*)/IC50 parental cells (2008); for IC50: cisplatin-resistant cells, 72 h, MTT test. It is filed as cell-based, human. The protocol:
as §5, §2, §3, §4

Assay [7] deals with human pancreatic PSN-1 cancer-cell spheroids. The experiment in a line: 3D spheroid cytotoxicity, APH assay, 72 h. To be noted: for IC50: 3D spheroids, 72 h, APH test; for times more effective than cisplatin in 3D spheroids: PSN-1 3D spheroids, relative to cisplatin. It is filed as cell-based. On the procedure: The cancer spheroids were treated with tested complexes for 72 h, and the cell viability was estimated by means of a modified acid phosphatase (APH) assay.
Spheroid cultures were performed by seeding 2.5 × 10^3 PSN-1 cancer cells/well in spheroid-suitable tissue culture untreated 96-well plates (Greiner Bio-one, Kremsmünster, Austria) in RPMI-1640 cell culture medium without phenol red (Sigma Chemical Co., St. Louis, MO, USA) containing 10% fetal calf serum and supplemented with 20% methyl cellulose stock solution.
An established APH-modified assay was used to detect the cytotoxicity profile in 3D spheroids, as previously described. IC50 values were calculated using a 4-PL model.

The subject of another assay is DNA. The experiment in a line: Ethidium bromide displacement assay. The class given is binding. To be noted: EtBr displacement. The protocol:
A number of research studies were performed on the elucidation of the mechanism of action of copper complexes in the past three decades. Despite several different molecular targets having been proposed for copper(II) complexes, DNA still represents one of the most substantiated when considering diamine ligands. On this basis, we thought it of interest to evaluate the ability of tested complexes to interact with DNA, both at molecular and cellular levels. An ethidium bromide (EB) displacement assay was used to understand if the complexes interact with the DNA at a molecular level. […] These values are very much in line with what was previously seen by us and also very close to the reported literature values of 2.60 × 10^7 M(bp^−1) and 3.04 × 10^7 M(bp^−1) for the bis complexes of [Cu(phen)2]^2+ and [Cu(DPQ)2]^2+ reported by Molphy et al.. […] It is largely possible that the presence of the 1,10-phenanthroline scaffold on compounds 3 and 4 is contributing to the increased displacement of the EtBr (probably by intercalation) and leading to a more noticeable decrease in the fluorescence.
EtBr displacement assays were performed in 10 mM phosphate buffer solution (pH 7.4) as described by Boger et al. The binding values were calculated using the % relative decrease of fluorescence at 50% and the equation below. (1) EEBEtBr/compound50%FI

The target of assay [8] is T1, protein disulphide isomerase (PDI) (Homo sapiens, UniProt P07237).
T1 construct: purchased Enzo Life Sciences, Lausen, Switzerland
T1 sequence (P07237 18-508): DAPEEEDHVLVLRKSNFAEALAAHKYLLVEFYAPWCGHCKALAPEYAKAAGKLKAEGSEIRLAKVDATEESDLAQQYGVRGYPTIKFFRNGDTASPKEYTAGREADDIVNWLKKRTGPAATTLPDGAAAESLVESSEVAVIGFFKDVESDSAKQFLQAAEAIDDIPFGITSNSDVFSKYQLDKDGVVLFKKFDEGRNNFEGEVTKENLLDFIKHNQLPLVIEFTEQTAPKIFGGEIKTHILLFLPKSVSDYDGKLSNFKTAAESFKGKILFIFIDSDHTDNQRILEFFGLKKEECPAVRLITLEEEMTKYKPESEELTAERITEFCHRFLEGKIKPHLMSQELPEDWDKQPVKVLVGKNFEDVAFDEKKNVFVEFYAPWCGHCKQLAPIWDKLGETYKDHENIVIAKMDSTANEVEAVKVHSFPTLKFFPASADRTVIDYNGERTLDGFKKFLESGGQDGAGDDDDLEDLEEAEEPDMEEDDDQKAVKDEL
The assay is described as follows: PDI reductase activity (PROTEOSTAT PDI assay kit). To be noted: 25 µM of complex. The class given is biochemical. The protocol: MDA-MDB-231 cells were exposed for 3 h to 4 μM of tested compounds or 200 µM of the reference drug chlorambucil. […] On the other hand, some reports highlighted protein disulphide isomerase (PDI) as an emerging target for copper complexes.
The reductase activity of PDI was assayed by measuring the PDI-catalysed reduction of insulin in the presence of increasing concentrations of the tested compounds by using the PROTEOSTAT PDI assay kit (Enzo Life Sciences, Lausen, Switzerland). Experiments were performed according to the manufacturer’s instructions as previously described. IC50 values were calculated by the 4-PL model.
Figure 4 Mechanistic studies. (A) Comet assay: MDA-MDB-231 cells were treated for 3 h with 4 μM of tested compounds 2 and 4 or 200 µM of the reference drug chlorambucil. […] The PDI inhibitor Bacitracine (0.5 mM) was used as a positive control.

A further assay deals with MDA-MB-231 cells. The settings on record: 24 h, IC50 concentrations. On the procedure: Transmission electron microscopy (TEM) studies were also performed to assess the eventual modification of cellular/subcellular morphological features induced by the tested complexes. Figure 5 reports the TEM images of the breast carcinoma cells MDA-MB-231 treated for 24 h with IC50 concentrations of cisplatin or compounds 2 and 4.
About 10^6 MDA-MB-231 cells were seeded in 24-well plates and, following overnight incubation, were treated with the tested compounds for 24 h. Then, cells were processed as previously described. Pictures were captured with a Hitachi H-600 electron microscope (Hitachi, Tokyo, Japan) operating at 75 kV. All photos were analyzed by using Corel Draw 11.
Figure 5 TEM analysis of MDA-MB-231 human breast cancer cells: (a,b) control cells; (c–e) cells treated for 24 h with IC50 concentrations of 2; (f–h) cells treated for 24 h with IC50 concentrations of 4.

Setting [9] is: Table 2, cisplatin-sensitive parental cells.

For the molecule `O=C(CCCC[C@@H]1SC[C@@H]2NC(=O)N[C@@H]21)NN=C1C(=O)c2ccc[n+]3c2-c2c1ccc[n+]2[Cu-2]3([Cl])[Cl]` [Complex 2, [Cu(phendione-biotin)Cl2]], the IC50 in assay [1] is 400 ± 100 nM; in assay [2] (Table 1, mean ± S.D.) it was 1100 ± 300 nM; in [2] (setting [9]), 1100 ± 300 nM; in [3] it was 1200 ± 500 nM; in [4] it was 1400 ± 100 nM; in assay [5], 3800 ± 500 nM. In addition, the IC50 was 1100 ± 400 nM in [6] and 1300 ± 500 nM in assay [7]. For the same molecule, in assay [6], the “R.F. (resistance factor)” value was 1.0. In assay [7], the “times more effective than cisplatin in 3D spheroids” value is on record as “about forty”. Moreover, in the assay with DNA, the “fluorescence quenching (in words)” value is on record as “very small quenching”. In assay [8], the PDI inhibition is on record as 45%. Also, the “cell morphology by TEM” value in the assay with MDA-MB-231 cells is “substantial enhancement of the mitochondrial dimensions (swelling) and a partial disruption of the cristae structures”.

For the molecule `O=C(CCCC[C@@H]1SC[C@@H]2NC(=O)N[C@@H]21)NN=C1C(=O)c2ccc[n+]3c2-c2c1ccc[n+]2[Cu-2]31[n+]2cccc3ccc4ccc[n+]1c4c32.O=[N+]([O-])[O-].O=[N+]([O-])[O-]` [Complex 4, [Cu(phen)(phendione-biotin)](NO3)2], the IC50 in assay [1] is 400 ± 20 nM; in [2] (Table 1, mean ± S.D.) it was 600 ± 200 nM; in [2] (setting [9]) it was 600 ± 200 nM; in assay [3] it was 300 ± 30 nM; in assay [4] it was 600 ± 100 nM; in assay [5], 2000 ± 600 nM. Further, the IC50 amounted to 1100 ± 300 nM in [6] and 6900 ± 1300 nM in assay [7]. For the same molecule, in [6], the “R.F. (resistance factor)” value turned out to be 1.9. In addition, in assay [7], the “times more effective than cisplatin in 3D spheroids” value is reported as “eight”. The “fluorescence quenching (in words)” value in the assay with DNA is on record as “highest quenching values”. In addition, in the assay with DNA, the relative fluorescence decrease result is “greater than 50%”. Further, in the assay with DNA (10 mM phosphate buffer pH 7.4, from 50% fluorescence decrease), the binding constant is given as 1.28 × 10^7 M(bp^−1). In [8], this molecule gave a PDI inhibition of 15%. Further, in the assay on MDA-MB-231 cells, the “cell morphology by TEM” value is “substantial enhancement of the mitochondrial dimensions (swelling) and a partial disruption of the cristae structures”.
